Test results: the SangsterLogP compilation

Assay: method code SF-HPLC, from DOI: 10.1021/jm00151a006, PMID: 3510299

Row | SMILES | logP
1 | COc1cccc(CN(C)N=O)c1 | 1.6
2 | COc1ccc(CN(C)N=O)cc1 | 1.62
3 | CN(Cc1ccc(Cl)cc1)N=O | 2.19
4 | Cc1cccc(CN(C)N=O)c1 | 1.96
5 | CN(Cc1cccc([N+](=O)[O-])c1)N=O | 1.17
6 | CN(Cc1ccc([N+](=O)[O-])cc1)N=O | 0.82
7 | CN(Cc1cccc(C(F)(F)F)c1)N=O | 1.99
8 | CN(Cc1ccc(C#N)cc1)N=O | 0.99
9 | CN(Cc1cccc(Cl)c1)N=O | 1.46
10 | CN(Cc1ccccc1)N=O | 1.55
11 | CN(Cc1ccc(F)cc1)N=O | 1.67
12 | Cc1ccc(CN(C)N=O)cc1 | 2.14
